ChEMBL document CHEMBL5465560, “Selectivity Literature for EUbOPEN Chemogenomic Library” (2024)
Each block holds one compound with its values, some of them ahead of it.

Tests used:
[1] = target: Insulin-like growth factor 1 receptor (Homo sapiens, UniProt P08069); settings: at 10 µM
[2] = target: Wee1-like protein kinase 2 (Homo sapiens) (UniProt P0C1S8); experiment: Selectivity interaction (KinomeScan (DiscoverX)) EUB0000655a WEE2; settings: at 10 µM
[3] = target: Mitogen-activated protein kinase 6 (Homo sapiens) (UniProt Q16659); experiment: Selectivity interaction (KinomeScan (DiscoverX)) EUB0000655a MAPK6; settings: at 10 µM
[4] = target: G protein-coupled receptor kinase 4 (Homo sapiens) (UniProt P32298); experiment: Selectivity interaction (KinomeScan (DiscoverX)) EUB0000655a GRK4; settings: at 10 µM
[5] = target: Proto-oncogene tyrosine-protein kinase receptor Ret (Homo sapiens, UniProt P07949); experiment: Selectivity interaction (Millipore kinase profiler) EUB0000124b RET; settings: at 10 µM
[6] = target: Tyrosine-protein kinase receptor UFO (Homo sapiens) (UniProt P30530); experiment: Selectivity interaction (Millipore kinase profiler) EUB0000124b AXL; settings: at 10 µM
[7] = target: T1, Serine/threonine-protein kinase D2 (Homo sapiens) (UniProt Q9BZL6); experiment: Selectivity interaction (ActivX KiNativ screen (ex vivo kinase selectivity in human PBMCs)) EUB0001619a PRKD2; format: cell-based; settings: PBMC, at 1 µM
T1 sequence (whole entry): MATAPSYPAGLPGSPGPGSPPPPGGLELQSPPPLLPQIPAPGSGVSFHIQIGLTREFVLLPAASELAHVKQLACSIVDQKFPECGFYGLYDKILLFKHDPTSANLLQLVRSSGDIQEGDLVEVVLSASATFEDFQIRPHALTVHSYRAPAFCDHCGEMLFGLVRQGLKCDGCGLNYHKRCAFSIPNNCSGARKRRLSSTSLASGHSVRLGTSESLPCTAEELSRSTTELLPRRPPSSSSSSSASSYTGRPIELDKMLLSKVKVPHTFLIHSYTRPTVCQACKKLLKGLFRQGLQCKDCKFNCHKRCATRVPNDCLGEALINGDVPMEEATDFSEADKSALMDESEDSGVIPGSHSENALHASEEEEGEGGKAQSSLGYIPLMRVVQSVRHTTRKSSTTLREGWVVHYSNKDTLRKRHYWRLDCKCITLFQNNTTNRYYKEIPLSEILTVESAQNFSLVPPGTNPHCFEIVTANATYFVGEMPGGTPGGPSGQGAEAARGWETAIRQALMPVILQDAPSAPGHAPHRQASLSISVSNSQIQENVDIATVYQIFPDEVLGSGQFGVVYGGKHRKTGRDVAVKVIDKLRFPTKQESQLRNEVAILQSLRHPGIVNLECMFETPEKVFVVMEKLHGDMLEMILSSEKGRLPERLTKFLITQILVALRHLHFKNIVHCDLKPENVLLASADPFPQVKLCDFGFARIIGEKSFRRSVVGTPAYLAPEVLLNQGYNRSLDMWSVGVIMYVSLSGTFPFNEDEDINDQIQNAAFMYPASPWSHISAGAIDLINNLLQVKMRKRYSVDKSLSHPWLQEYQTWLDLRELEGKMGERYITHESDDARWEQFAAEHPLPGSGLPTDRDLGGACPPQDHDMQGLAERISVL

[8] = target: Serine/threonine-protein kinase 26 (Homo sapiens, UniProt Q9P289); settings: PBMC, at 1 µM
[9] = target: Tyrosine-protein kinase SYK (Homo sapiens, UniProt P43405); experiment: Selectivity interaction (ActivX KiNativ screen (ex vivo kinase selectivity in human PBMCs)) EUB0001619a SYK; format: cell-based; settings: PBMC, at 1 µM
[10] = target: Tyrosine-protein kinase HCK (Homo sapiens) (UniProt P08631); experiment: Selectivity interaction (KinomeScan (DiscoverX)) EUB0000045b HCK
[11] = target: Tyrosine-protein kinase Fer (Homo sapiens) (UniProt P16591); experiment: Selectivity interaction (ActivX KiNativ screen (kinase selectivity in THP-1 cell lysates)) EUB0000639a FER; format: subcellular; settings: lysate, at 0.2 µM
[12] = target: T2, Scaffold protein ILK (Homo sapiens) (UniProt Q13418); experiment: Selectivity interaction (ActivX KiNativ screen (kinase selectivity in THP-1 cell lysates)) EUB0000639a ILK; format: subcellular; settings: lysate, at 0.04 µM
T2 sequence (whole entry): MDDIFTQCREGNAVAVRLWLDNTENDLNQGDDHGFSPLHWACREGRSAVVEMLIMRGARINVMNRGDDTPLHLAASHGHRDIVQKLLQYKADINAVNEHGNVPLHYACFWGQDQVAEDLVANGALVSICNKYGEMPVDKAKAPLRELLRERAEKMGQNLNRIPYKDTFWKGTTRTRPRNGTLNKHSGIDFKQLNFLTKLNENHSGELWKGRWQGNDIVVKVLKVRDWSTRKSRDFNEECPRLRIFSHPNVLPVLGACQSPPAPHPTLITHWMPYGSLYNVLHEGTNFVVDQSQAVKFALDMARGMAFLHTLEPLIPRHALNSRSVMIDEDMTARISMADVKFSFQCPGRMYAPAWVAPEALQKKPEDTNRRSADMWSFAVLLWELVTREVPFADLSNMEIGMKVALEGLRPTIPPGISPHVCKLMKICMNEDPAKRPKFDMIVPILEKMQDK

[13] = target: LIM domain kinase 2 (Homo sapiens) (UniProt P53671); experiment: Selectivity interaction (ProQinase) EUB0000171b LIMK2
[14] = target: T3, 3-phosphoinositide-dependent protein kinase 1 (Homo sapiens) (UniProt O15530); experiment: Selectivity interaction (KinomeScan (DiscoverX)) EUB0001049a PDPK1; settings: at 1 µM
T3 sequence (whole entry): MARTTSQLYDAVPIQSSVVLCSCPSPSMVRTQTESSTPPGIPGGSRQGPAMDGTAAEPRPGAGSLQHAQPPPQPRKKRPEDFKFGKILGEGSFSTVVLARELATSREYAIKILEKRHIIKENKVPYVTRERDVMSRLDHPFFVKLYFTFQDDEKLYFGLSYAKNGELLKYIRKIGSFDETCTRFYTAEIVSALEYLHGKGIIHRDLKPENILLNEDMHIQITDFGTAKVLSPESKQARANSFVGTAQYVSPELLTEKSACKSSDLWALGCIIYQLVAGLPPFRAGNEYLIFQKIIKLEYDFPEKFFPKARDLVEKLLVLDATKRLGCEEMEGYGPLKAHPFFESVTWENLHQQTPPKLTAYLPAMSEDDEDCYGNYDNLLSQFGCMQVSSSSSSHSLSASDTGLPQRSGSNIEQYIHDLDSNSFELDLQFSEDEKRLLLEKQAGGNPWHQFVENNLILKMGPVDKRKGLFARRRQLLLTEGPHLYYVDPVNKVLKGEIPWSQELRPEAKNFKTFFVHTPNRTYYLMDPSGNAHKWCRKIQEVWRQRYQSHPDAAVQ

[15] = target: Cyclin-dependent kinase-like 3 (Homo sapiens) (UniProt Q8IVW4); experiment: Selectivity interaction (KinomeScan (DiscoverX)) EUB0000666a CDKL3; settings: at 10 µM
[16] = target: Mitogen-activated protein kinase kinase kinase kinase 1 (Homo sapiens) (UniProt Q92918); experiment: Selectivity interaction (KinomeScan (DiscoverX)) EUB0000092b MAP4K1; settings: at 10 µM
Mitogen-activated protein kinase kinase kinase kinase 1 (Homo sapiens), sequence (Q92918 whole entry, looked up): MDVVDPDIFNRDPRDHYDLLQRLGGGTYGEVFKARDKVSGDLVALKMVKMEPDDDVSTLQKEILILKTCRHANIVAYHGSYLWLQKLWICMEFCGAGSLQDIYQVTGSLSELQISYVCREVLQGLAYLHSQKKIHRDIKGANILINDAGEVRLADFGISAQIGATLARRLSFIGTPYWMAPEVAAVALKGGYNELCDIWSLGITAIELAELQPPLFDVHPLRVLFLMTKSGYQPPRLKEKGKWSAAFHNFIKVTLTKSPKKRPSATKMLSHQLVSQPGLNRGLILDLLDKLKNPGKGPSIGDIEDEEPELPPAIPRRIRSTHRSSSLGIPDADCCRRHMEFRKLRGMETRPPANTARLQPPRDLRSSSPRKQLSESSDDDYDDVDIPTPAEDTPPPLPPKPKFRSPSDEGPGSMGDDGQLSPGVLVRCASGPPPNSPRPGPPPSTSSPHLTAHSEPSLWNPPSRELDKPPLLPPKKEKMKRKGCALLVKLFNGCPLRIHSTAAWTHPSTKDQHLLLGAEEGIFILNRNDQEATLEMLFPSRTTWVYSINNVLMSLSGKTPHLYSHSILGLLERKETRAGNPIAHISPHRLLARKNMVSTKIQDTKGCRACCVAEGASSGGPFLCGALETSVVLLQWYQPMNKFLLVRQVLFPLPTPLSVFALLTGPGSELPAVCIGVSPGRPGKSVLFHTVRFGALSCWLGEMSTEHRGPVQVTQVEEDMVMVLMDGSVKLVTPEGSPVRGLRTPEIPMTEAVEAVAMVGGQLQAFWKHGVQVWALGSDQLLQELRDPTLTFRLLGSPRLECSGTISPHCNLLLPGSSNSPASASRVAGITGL

Tyrosine-protein kinase HCK (Homo sapiens), sequence (P08631 2-526 limits assumed): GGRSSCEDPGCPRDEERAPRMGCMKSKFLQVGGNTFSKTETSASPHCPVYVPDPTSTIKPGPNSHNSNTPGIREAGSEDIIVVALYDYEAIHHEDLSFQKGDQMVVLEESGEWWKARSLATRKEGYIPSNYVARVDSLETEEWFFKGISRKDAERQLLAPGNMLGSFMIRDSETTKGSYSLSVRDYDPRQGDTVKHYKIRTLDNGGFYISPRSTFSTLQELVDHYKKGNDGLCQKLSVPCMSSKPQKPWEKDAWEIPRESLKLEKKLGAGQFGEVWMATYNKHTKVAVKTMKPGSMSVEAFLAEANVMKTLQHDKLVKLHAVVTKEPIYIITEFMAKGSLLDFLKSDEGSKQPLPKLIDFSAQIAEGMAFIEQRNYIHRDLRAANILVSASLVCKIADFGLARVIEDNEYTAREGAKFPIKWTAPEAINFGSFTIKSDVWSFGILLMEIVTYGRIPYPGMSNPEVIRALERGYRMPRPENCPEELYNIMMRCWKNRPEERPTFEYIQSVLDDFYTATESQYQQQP
LIM domain kinase 2 (Homo sapiens), sequence (P53671 whole entry, looked up, the tested form may be a part): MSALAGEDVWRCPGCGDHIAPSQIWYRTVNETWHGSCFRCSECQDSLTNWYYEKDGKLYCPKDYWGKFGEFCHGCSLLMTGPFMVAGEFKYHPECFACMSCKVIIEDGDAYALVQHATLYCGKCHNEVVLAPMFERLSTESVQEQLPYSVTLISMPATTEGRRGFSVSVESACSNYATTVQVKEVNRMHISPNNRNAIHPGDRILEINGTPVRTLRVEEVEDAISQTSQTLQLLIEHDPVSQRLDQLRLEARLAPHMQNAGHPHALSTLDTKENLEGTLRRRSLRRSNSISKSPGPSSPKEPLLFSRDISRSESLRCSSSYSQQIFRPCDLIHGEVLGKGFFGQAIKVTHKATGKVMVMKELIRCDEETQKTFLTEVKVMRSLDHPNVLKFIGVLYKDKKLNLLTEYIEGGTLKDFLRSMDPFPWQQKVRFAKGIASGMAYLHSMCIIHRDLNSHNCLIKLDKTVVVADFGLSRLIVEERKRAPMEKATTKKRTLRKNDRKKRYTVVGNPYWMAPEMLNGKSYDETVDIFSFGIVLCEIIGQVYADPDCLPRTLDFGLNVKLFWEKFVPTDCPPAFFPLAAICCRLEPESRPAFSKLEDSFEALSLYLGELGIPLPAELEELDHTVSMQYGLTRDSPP
Serine/threonine-protein kinase 26, sequence (Q9P289 2-416 limits assumed): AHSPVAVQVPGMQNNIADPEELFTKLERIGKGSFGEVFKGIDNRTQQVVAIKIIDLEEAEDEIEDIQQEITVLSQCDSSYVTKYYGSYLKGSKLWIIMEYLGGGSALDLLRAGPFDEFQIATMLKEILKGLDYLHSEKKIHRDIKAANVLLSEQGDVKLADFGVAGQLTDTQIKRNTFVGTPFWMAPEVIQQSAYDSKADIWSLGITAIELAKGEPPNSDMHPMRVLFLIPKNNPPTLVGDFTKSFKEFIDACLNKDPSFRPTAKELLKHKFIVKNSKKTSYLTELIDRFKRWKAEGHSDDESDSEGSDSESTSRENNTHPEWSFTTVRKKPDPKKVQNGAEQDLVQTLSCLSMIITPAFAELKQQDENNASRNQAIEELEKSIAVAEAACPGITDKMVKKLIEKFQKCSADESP
Proto-oncogene tyrosine-protein kinase receptor Ret, sequence (P07949 whole entry): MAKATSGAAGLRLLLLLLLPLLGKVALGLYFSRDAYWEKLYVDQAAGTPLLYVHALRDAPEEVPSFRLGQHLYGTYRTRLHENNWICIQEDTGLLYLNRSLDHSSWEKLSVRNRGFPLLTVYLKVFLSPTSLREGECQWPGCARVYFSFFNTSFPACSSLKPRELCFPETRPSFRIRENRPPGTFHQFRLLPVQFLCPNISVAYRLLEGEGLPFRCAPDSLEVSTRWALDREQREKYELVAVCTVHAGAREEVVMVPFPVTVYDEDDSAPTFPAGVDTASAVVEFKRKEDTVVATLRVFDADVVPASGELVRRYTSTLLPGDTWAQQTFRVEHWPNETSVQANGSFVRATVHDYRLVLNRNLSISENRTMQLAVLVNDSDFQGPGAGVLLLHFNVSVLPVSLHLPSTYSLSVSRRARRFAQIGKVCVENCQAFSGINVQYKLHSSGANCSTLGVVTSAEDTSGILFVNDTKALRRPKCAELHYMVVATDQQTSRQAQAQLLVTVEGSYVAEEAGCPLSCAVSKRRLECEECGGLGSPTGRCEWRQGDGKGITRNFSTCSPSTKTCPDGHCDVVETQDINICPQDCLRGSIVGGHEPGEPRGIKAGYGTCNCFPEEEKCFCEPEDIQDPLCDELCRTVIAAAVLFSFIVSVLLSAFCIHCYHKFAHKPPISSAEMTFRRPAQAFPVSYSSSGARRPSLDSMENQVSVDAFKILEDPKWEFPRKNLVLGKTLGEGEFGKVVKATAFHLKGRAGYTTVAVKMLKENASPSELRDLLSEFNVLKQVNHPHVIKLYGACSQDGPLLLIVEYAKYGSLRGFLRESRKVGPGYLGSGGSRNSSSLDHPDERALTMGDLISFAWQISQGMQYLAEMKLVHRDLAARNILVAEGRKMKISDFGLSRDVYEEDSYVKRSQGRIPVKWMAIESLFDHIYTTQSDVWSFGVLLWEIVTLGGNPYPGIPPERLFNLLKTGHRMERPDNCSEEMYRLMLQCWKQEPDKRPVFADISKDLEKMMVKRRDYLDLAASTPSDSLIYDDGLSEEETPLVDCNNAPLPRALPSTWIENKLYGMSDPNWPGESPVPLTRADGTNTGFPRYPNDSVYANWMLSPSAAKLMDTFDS
Mitogen-activated protein kinase 6 (Homo sapiens), sequence (Q16659 whole entry): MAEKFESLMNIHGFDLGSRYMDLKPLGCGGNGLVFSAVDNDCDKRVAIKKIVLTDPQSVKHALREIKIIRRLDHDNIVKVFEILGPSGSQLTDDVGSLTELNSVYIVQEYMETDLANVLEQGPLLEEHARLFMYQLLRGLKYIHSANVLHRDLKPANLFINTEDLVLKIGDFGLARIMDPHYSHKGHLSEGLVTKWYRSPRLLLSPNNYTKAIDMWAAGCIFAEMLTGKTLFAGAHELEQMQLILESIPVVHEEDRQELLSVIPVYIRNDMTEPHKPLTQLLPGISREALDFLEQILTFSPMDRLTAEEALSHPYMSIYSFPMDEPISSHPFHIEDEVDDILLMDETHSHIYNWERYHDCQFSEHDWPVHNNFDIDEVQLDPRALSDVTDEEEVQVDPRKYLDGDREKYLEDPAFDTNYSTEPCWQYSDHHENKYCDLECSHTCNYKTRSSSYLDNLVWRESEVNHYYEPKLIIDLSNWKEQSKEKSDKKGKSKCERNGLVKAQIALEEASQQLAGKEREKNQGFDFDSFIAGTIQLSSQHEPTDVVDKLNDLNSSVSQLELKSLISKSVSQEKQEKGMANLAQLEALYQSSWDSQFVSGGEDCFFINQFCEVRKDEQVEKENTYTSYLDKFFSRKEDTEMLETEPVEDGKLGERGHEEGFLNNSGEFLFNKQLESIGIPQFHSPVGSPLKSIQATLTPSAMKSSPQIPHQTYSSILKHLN
Wee1-like protein kinase 2 (Homo sapiens), sequence (P0C1S8 whole entry, looked up): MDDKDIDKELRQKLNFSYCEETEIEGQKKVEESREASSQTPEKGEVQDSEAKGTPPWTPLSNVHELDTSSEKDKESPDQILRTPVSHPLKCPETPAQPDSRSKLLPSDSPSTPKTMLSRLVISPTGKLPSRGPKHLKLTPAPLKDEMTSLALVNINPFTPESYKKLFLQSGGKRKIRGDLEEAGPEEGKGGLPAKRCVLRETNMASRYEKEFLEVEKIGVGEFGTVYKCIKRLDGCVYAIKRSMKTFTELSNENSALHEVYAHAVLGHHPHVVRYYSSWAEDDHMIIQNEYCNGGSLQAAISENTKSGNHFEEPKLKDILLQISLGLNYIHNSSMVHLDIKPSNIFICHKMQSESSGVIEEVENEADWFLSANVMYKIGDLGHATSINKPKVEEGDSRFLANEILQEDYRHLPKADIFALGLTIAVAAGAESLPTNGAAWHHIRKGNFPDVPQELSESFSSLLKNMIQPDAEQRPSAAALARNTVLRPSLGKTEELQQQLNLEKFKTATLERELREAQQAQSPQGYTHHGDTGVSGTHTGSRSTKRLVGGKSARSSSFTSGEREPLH

% of control [1]: 100%
SMILES: CCN(CC)CCCCNc1ncc2cc(-c3cc(OC)cc(OC)c3)c(NC(=O)NC(C)(C)C)nc2n1

SMILES: CN(C)CCOc1ccc(-c2nc(-c3ccncc3)c(-c3ccc4c(c3)CC/C4=N\O)[nH]2)cc1
% of control [2]: 100%
% of control [3]: 92%
% of control [4]: 100%

% of control [5]: 109%
% of control [6]: 114%
SMILES: CC(=O)Nc1cccc(-n2c(=O)n(C3CC3)c(=O)c3c(Nc4ccc(I)cc4F)n(C)c(=O)c(C)c32)c1

SMILES: N#Cc1cccc(-c2c[nH]c3ncnc(N4CCOCC4)c23)c1
% of inhibition [7]: -2%
% of inhibition [8]: 65%
% of inhibition [9]: 0%

SMILES: C=CC(=O)Nc1cc(-n2c(=O)ccc3cnc4ccc(-c5ccc(NS(C)(=O)=O)cc5)cc4c32)ccc1C
% of control ([10]; at 1 µM): 97%
% of control ([10]; at 10 µM): 100%

% of inhibition [11]: -7.1%
% of inhibition [12]: -18.4%
SMILES: CC[C@@H]1[C@H](F)C(=O)N[C@@H]1COc1nccc2cc(C(N)=O)c(OC)cc12 [ZIMLOVISERTIB]

% of control ([13]; at 1 µM): 90%
% of control ([13]; at 5 µM): 80%
SMILES: C=CC(=O)Nc1cccc(C(=O)Nc2ccc(Nc3cc(-c4[nH]c(SC)nc4C)ccn3)cc2)c1

SMILES: COc1cc(Nc2nc(C)cc(-c3cnn4nc(OC)ccc34)n2)cc(C(F)(F)F)c1
% of control [14]: 100%

SMILES: O=C(NOC[C@H](O)CO)c1ccc(F)c(F)c1Nc1ccc(I)cc1F
% of control [15]: 98%

SMILES: CCC(=O)N1CCN(c2ccc(-n3c(=O)ccc4cnc5ccc(-c6cnc7ccccc7c6)cc5c43)cc2C(F)(F)F)CC1
% of control [16]: 30%
